The values that follow come from ChEMBL document CHEMBL3120137, “Substituted benzene sulfonamides incorporating 1,3,5-triazinyl moieties potently inhibit human carbonic anhydrases II, IX and XII” (Bioorg Med Chem Lett, 2014).

The assay addresses Carbonic anhydrase 9 (Homo sapiens, UniProt Q16790). As to the kind of experiment: Inhibition of human transmembrane carbonic anhydrase 9 preincubated for 15 mins by stopped flow CO2 hydration assay.

Consider `NS(=O)(=O)c1ccc(Nc2nc(N3CCOCC3)nc(N3CCOCC3)n2)cc1`, for which the affinity corresponds to a Ki of 34.1 nM.

Consider `Cc1cccc(Nc2nc(Nc3ccc(S(N)(=O)=O)cc3)nc(N3CCOCC3)n2)c1`, for which the affinity, expressed as Ki, was 10.2 nM.

Turning to `Nc1nc(N)nc(Nc2ccc(S(N)(=O)=O)cc2)n1`, affinity was put at a Ki of 2.4 nM.

For `CC(C)(C)Nc1nc(Nc2ccc(S(N)(=O)=O)cc2)nc(NC(C)(C)C)n1`, the affinity, expressed as Ki, was 19.3 nM.

As to `CN(CCO)c1nc(Nc2ccc(S(N)(=O)=O)cc2)nc(N(C)CCO)n1`, the affinity, expressed as Ki, was 5.9 nM.

Turning to `NCCCNc1nc(NCCCN)nc(Nc2ccc(S(N)(=O)=O)cc2)n1`, the affinity, expressed as Ki, was 18.3 nM.

As for `Nc1cccnc1Nc1ccc(S(N)(=O)=O)cc1`, the inhibition constant Ki – broadly, a measure of affinity in units of concentration, obtained from inhibition or displacement – was 10.7 nM.

`COc1ccc(Nc2ccc(S(N)(=O)=O)cc2)nn1` yielded a Ki of 8.5 nM.

With `NS(=O)(=O)c1ccc(Nc2nc(Cl)nc(Nc3ccccc3)n2)cc1`, the Ki turned out to be 5.9 nM.

On to `CN(CCO)c1nc(Cl)nc(Nc2ccc(S(N)(=O)=O)cc2)n1`, for which the Ki is 1.2 nM.

Take `NCCCNc1nc(Cl)nc(Nc2ccc(S(N)(=O)=O)cc2)n1`: the affinity, expressed as Ki, was 21.4 nM.

Consider `NS(=O)(=O)c1ccc(Nc2nc(Cl)nc(Nc3ccc(F)c(Cl)c3)n2)cc1`, for which the affinity corresponds to a Ki of 21.2 nM.
